Test results published in patent US10538564B2, “Peptides having osteoblast growth-promoting activity and use thereof” (PHARMA FOODS INTERNATIONAL CO., LTD., priority 2014, dated 2020).
No end group written: not given here.

Tests used:
[1] = test system: mature female rats (eight months old); test: Bone formation-promoting effect in mature rats; type: in vivo, rat; settings: No. 1 oral 1, 10 or 100 mg/kg·day, alendronate 300 μg/kg subcutaneous, 20 weeks, vs control group
Description: Synthetic peptide No. 1 was administered to mature female rats (eight months old, ten rats in each group) by oral gavage using a gastric tube once a day for 20 weeks. The dose of the synthetic peptide was 1, 10 or 100 mg/kg·day.

[2] = test system: mouse osteoblast-like cell line MC3T3-E1 Subclone-4; test: Osteoblast growth-promoting activity (cell counting method); type: cell-based; settings: synthetic peptides at 2.5, 5 or 10 μg/mL; 72 hours; relative to PBS (−) group taken as 100; FIGS. 9 to 12
Description: A mouse osteoblast-like cell line MC3T3-E1 Subclone-4 (ATCC No. CRL-2593) was cultured in α-MEM medium supplemented with 10% FBS at 5% CO2 and 95% air at 37° C. until confluent. The cells were collected by trypsinization. The collected cells were suspended at 1×10^4 cells/mL in fresh α-MEM medium. One mL of the cell suspension was seeded in each well of a 24-well plate, and precultured at 5% CO2 and 95% air at 37° C. On the next day, the medium was replaced with medium prepared by well mixing 50 μL of a sample or PBS (−) with 950 μL of fresh α-MEM medium supplemented with CaCl2 to a Ca concentration of 500 μg/mL. The cells were further cultured for 72 hours. The growth activity of osteoblasts was measured by the cell counting method. The activity of the sample for promoting the growth of osteoblasts was expressed in terms of the relative value, with the growth rate in the PBS (−) group taken as 100. Osteoblast growth-promoting activity was determined for the synthetic peptides in the same manner as in Example 1. The synthetic peptides were added at 2.5, 5 or 10 μg/mL per well. As a control, PBS (−) was added. The osteoblast growth-promoting activity was expressed in terms of the relative value, with the growth rate in the PBS (−) group taken as 100.

[3] = test system: mouse-derived chondrogenic cell line ATDC5; test: Chondrocyte growth-promoting activity (Cell Counting Kit-8); type: cell-based; settings: 10 nmol/mL; 72 hours; relative to control taken as 100%; FIG. 14
Description: This study was performed using mouse-derived chondrogenic cell line ATDC5 (RIKEN BANK, RBC0565). ATDC5 cells in the logarithmic growth phase were suspended at 3×10^4 cells/mL in Eagle MEM medium supplemented with 5% FCS (fetal calf serum), and 100 μL of the cell suspension was seeded in each well of a 96-well plate and precultured at 5% CO2 and 95% air at 37° C. On the next day, the medium in each well was removed, and medium containing the synthetic peptide (No. 1 or No. 6) at 10 nmol/mL was added. The cells were cultured for 72 hours. As a control, medium without a synthetic peptide was added. The reaction solution ([…]) of Cell Counting Kit-8 (Dojindo Laboratories) was added to each well. The plate was incubated for 3 hours, and the absorbance at 450 nm was measured with a microplate reader. The activity of the synthetic peptides for promoting the growth of chondrocytes was expressed in terms of the relative value, with the absorbance (growth rate) in the control group taken as 100%.

[4] = test system: mouse-derived cell line ATDC5; test: Hyaluronic acid production-promoting activity (ELISA of culture supernatant); type: cell-based; settings: 10 nmol/mL; supernatant after 48 hours of culture; FIG. 15
Description: This study was performed using the mouse-derived cell line ATDC5 as used in Example 4. ATDC5 cells in the logarithmic growth phase were seeded at 2×10^4 cells/mL per well in a 24-well plate containing DMEM/F-12 (1:1) medium supplemented with 5% FCS (fetal calf serum), 10 μg/mL transferrin and 3×10^−8 M sodium selenite. The cells were precultured at 5% CO2 and 95% air at 37° C. On the next day, the medium in each well was removed, and medium containing the synthetic peptide (No. 1 or No. 6) at 10 nmol/mL was added. The cells were cultured for […]. As a control, medium without a synthetic peptide was added. After 48 hours of culture, the culture supernatants were collected, and their hyaluronic acid concentrations were measured using QnE Hyaluronic Acid ELISA Assay (Biotech Trading Partners). The concentrations of hyaluronic acid in the culture supernatants of the synthetic peptide addition group were calculated by subtracting the absorbance of the background from the absorbance of the supernatants, and fitting the resulting values to the reference curve prepared using the standard.

[5] = test system: Crlj:W1 male rats at four weeks old; test: Mineral apposition rate in secondary cancellous bone, 7-day oral administration; type: in vivo, rat; settings: No. 1 oral 1, 10 or 100 mg/kg-day, hGH 500 μg/kg·day subcutaneous; seven days; FIG. 26
Description: One of the synthetic peptides (No. 1) or water for injection (control) was administered to Crlj:W1 male rats at four weeks old by oral gavage using a gastric tube once a day for seven days (n=10 in each group). The dose of the synthetic peptide was 1, 10 or 100 mg/kg-day. As a positive control, human growth hormone (hGH) (Norditropin, Standard Commodity Classification No. of Japan: 872412) was subcutaneously administered at 500 μg/kg·day once a day for seven days. As fluorescent labels for the site of bone formation, tetracycline (20 mg/kg) was subcutaneously administered on day 4 after the administration of the peptide or control, and then calcein (10 mg/kg) was subcutaneously administered on day 6 after the administration of the peptide or control. After the administration of the test sample on day 7, the rats were kept under fasting conditions. Twenty-four hours later, the rats were euthanized by bloodletting under anesthesia, and the tibiae were harvested. Non-decalcified specimens of the proximal tibiae were prepared and photographed under a fluorescent microscope (BX-53, OLYMPUS). The bone morphology was measured using a morphometry system (Histometry RT digitizer, System Supply Co., Ltd.) and an analysis software (CSS-840 cancellous bone morphometry version, System Supply Co., Ltd.). The mineral apposition rate (MAR), per day, in the secondary cancellous bone was determined by measuring the distance between the tetracycline label and the calcein label in the secondary cancellous bone, and dividing the distance by the administration interval between the fluorescent labels (two days). […] The increase in the mineral apposition rate in the secondary cancellous bone in the No. 1 administration group would have resulted from the increase in the number of osteoblasts.

[6] = test system: Crlj:W1 male rats at four weeks old; test: Bone formation in growth cartilage and primary cancellous bone, 7-day oral administration; type: in vivo, rat; settings: No. 1 oral 100 mg/kg-day, hGH 500 μg/kg-day subcutaneous, seven days
Description: One of the synthetic peptides (No. 1) or water for injection (control) was administered to Crlj:W1 male rats at four weeks old by oral gavage using a gastric tube once a day for seven days (n=3 in each group). The dose of the synthetic peptide (No. 1) was 100 mg/kg-day. As a positive control, human growth hormone (hGH) (Norditropin, Standard Commodity Classification No. of Japan: 872412) was subcutaneously administered at 500 μg/kg-day once a day for seven days. As fluorescent labels for the site of bone formation, tetracycline (20 mg/kg) was subcutaneously administered on day 4 after the administration of the peptide or control, and then calcein (10 mg/kg) was subcutaneously administered on day 6 after the administration of the peptide or control. After the administration of the test sample on day 7, the rats were kept under fasting conditions. Twenty-four hours later, the blood was collected. The rats were then euthanized by bloodletting under anesthesia, and the tibiae were harvested (see FIG. 16). Non-decalcified specimens of the proximal tibiae were prepared and photographed under a fluorescent microscope (BX-53, OLYMPUS). The bone morphology was measured using a morphometry system (Histometry RT digitizer, System Supply Co., Ltd.) and an analysis software (CSS-840 cancellous bone morphometry version, System Supply Co., Ltd.). The longitudinal growth rate (Lo.G.R.) in the growth cartilage, which is the increase in the height per day, was determined by measuring the distance between the tetracycline label and the calcein label, and dividing the distance by the administration interval between the fluorescent labels (two days).
The increase in the level of IGF-1, which is related to growth of the bones and muscles in a growth phase, may contribute to the bone growth-promoting effect.

[7] = test system: Crlj:W1 male rats at four weeks old; test: Bone formation in growth cartilage and secondary cancellous bone, 21-day oral administration; type: in vivo, rat; settings: No. 1 oral 100 mg/kg·day, hGH 500 μg/kg·day subcutaneous; 21 days; FIG. 21
Description: One of the synthetic peptides (No. 1) or water for injection (control) was administered to Crlj:W1 male rats at four weeks old by oral gavage using a gastric tube once a day for 21 days (n=3 in each group). The dose of the synthetic peptide was 100 mg/kg·day. As a positive control, human growth hormone (hGH) (Norditropin, Standard Commodity Classification No. of Japan: 872412) was subcutaneously administered at 500 μg/kg·day once a day for 21 days. As fluorescent labels for the site of bone formation, tetracycline (20 mg/kg) was subcutaneously administered on day 18 after the administration of the peptide or control, and then calcein (10 mg/kg) was subcutaneously administered on day 20 after the administration of the peptide or control. After the administration of the test sample on day 21, the rats were kept under fasting conditions. Twenty-four hours later, the rats were euthanized by bloodletting under anesthesia, and the tibiae were harvested (see FIG. 20). Non-decalcified specimens of the proximal tibiae were prepared and photographed under a fluorescent microscope (BX-53, OLYMPUS). The bone morphology was measured using a morphometry system (Histometry RT digitizer, System Supply Co., Ltd.) and an analysis software (CSS-840 cancellous bone morphometry version, System Supply Co., Ltd.). The longitudinal growth rate (Lo.G.R.) in the epiphyseal cartilage, which is the increase in the height per day, was determined by measuring the distance between the tetracycline label and the calcein label, and dividing the distance by the administration interval between the fluorescent labels (two days).

Compound: NCCCC(O)(P(=O)(O)O)P(=O)(O)O [alendronate, alendronate sodium hydrate, reference compound]
- cancellous bone volume in the proximal tibial metaphysis [1]: significantly increased

Compound: DESSPYE [No. 4]
- osteoblast growth-promoting activity [2]: promoted the growth of osteoblasts in a concentration-dependent manner

Compound: EDESSPYE [No. 5]
- osteoblast growth-promoting activity [2]: promoted the growth of osteoblasts in a concentration-dependent manner

Compound: Pro-Glu-Ser-Glu-Glu (PESEE) [No. 3]
- osteoblast growth-promoting activity [2]: promoted the growth of osteoblasts in a concentration-dependent manner

Compound: VNPESEE [No. 2]
- osteoblast growth-promoting activity [2]: promoted the growth of osteoblasts in a concentration-dependent manner

Compound: VNPESEEEDESSPYE [No. 6]
- chondrocyte growth-promoting activity [3]: showed chondrocyte growth-promoting effect
- hyaluronic acid production-promoting activity (hyaluronic acid concentration in culture supernatant) [4]: showed hyaluronic acid production-promoting effect
- osteoblast growth-promoting activity [2]: promoted the growth of osteoblasts in a concentration-dependent manner

Compound: hGH: human growth hormone (hGH) (Norditropin), positive control, subcutaneously administered [reference compound]
- mineral apposition rate (MAR) in the secondary cancellous bone, vs control group [5]: significant increase in the mineral apposition rate
- serum level of insulin-like growth factor (IGF-1) ([6]; ELISA, FIG. 19): higher than that in the control group
- longitudinal growth rate (Lo.G.R.) in the growth cartilage, vs control group ([6]; FIG. 17): significant promotion of bone growth as compared with the control group
- longitudinal growth rate (Lo.G.R.) in the epiphyseal cartilage, vs control group [7]: significant promotion of bone growth as compared with the control group
